From patent US20120156771A1, “FUNCTIONAL DISRUPTION OF AN IMMUNOGLOBULIN GENE IN AN AVIAN EMBRYONIC STEM CELL” (Origen Therapeutics, Inc., priority 2002, published 2012)

System: chicken embryonic stem cells
Assay: Titration kill curve: morphology of cES cells under puromycin or neomycin selection
Type: cell-based
Set-up: key to Morphology of cES cells: ES: ES cells are present.; diff: ES cells are differentiated.; gone: no morphologically recognizable cells are present
Description: In a preferred embodiment, the concentration of puromycin required for selecting transfected cells is calculated as a titration kill curve. Titration kill curves for chicken embryonic stem cells are established by exposing cells in culture to puromycin concentrations varying from 0.0 to 1.0 μg/ml for 10 days (Table 7) and neomycin concentrations varying from 0.0 to 200 μg/ml (Table 8). The medium is changed every 2 days and fresh puromycin or neomycin is added. […] Puromycin concentrations of 0.3-1.0 μg/ml are used for selection of the transfected cultures. Neomycin concentrations over 40 μg/ml eliminated all cES cells within 7 days (Table 8).

SMILES: COc1ccc(C[C@H](N)C(=O)N[C@H]2[C@@H](O)[C@H](n3cnc4c(N(C)C)ncnc43)O[C@@H]2CO)cc1 [puromycin]
- Presence of ES cells in wells (0.3 μg/ml puromycin, after 3 changes of medium with fresh puromycin over a six day period): absent from all wells
- Morphology of cES cells (puromycin 0.1 μg/ml, day 1 under selection): ES
- Morphology of cES cells (puromycin 0.1 μg/ml, day 2 under selection): ES
- Morphology of cES cells (puromycin 0.1 μg/ml, day 3 under selection): ES
- Morphology of cES cells (puromycin 0.1 μg/ml, day 4 under selection): ES
- Morphology of cES cells (puromycin 0.1 μg/ml, day 5 under selection): ES
- Morphology of cES cells (puromycin 0.1 μg/ml, day 6 under selection): ES
- Morphology of cES cells (puromycin 0.1 μg/ml, day 7 under selection): ES
- Morphology of cES cells (puromycin 0.1 μg/ml, day 8 under selection): ES
- Morphology of cES cells (puromycin 0.1 μg/ml, day 9 under selection): ES
- Morphology of cES cells (puromycin 0.1 μg/ml, day 10 under selection): ES
- Morphology of cES cells (puromycin 0.2 μg/ml, day 1 under selection): ES
- Morphology of cES cells (puromycin 0.2 μg/ml, day 2 under selection): ES
- Morphology of cES cells (puromycin 0.2 μg/ml, day 3 under selection): ES
- Morphology of cES cells (puromycin 0.2 μg/ml, day 4 under selection): ES
- Morphology of cES cells (puromycin 0.2 μg/ml, day 5 under selection): ES
- Morphology of cES cells (puromycin 0.2 μg/ml, day 6 under selection): ES
- Morphology of cES cells (puromycin 0.2 μg/ml, day 7 under selection): ES
- Morphology of cES cells (puromycin 0.2 μg/ml, day 8 under selection): ES
- Morphology of cES cells (puromycin 0.2 μg/ml, day 9 under selection): ES
- Morphology of cES cells (puromycin 0.2 μg/ml, day 10 under selection): ES
- Morphology of cES cells (puromycin 0.25 μg/ml, day 1 under selection): ES
- Morphology of cES cells (puromycin 0.25 μg/ml, day 2 under selection): ES
- Morphology of cES cells (puromycin 0.25 μg/ml, day 3 under selection): ES
- Morphology of cES cells (puromycin 0.25 μg/ml, day 4 under selection): ES
- Morphology of cES cells (puromycin 0.25 μg/ml, day 5 under selection): ES
- Morphology of cES cells (puromycin 0.25 μg/ml, day 6 under selection): diff
- Morphology of cES cells (puromycin 0.25 μg/ml, day 7 under selection): diff
- Morphology of cES cells (puromycin 0.3 μg/ml, day 1 under selection): ES
- Morphology of cES cells (puromycin 0.3 μg/ml, day 2 under selection): ES
- Morphology of cES cells (puromycin 0.3 μg/ml, day 3 under selection): diff
- Morphology of cES cells (puromycin 0.3 μg/ml, day 6 under selection): gone
- Morphology of cES cells (puromycin 0.3 μg/ml, day 7 under selection): gone
- Morphology of cES cells (puromycin 0.3 μg/ml, day 8 under selection): gone
- Morphology of cES cells (puromycin 0.3 μg/ml, day 9 under selection): gone
- Morphology of cES cells (puromycin 0.3 μg/ml, day 10 under selection): gone
- Morphology of cES cells (puromycin 0.4 μg/ml, day 1 under selection): ES
- Morphology of cES cells (puromycin 0.4 μg/ml, day 2 under selection): diff
- Morphology of cES cells (puromycin 0.4 μg/ml, day 3 under selection): gone
- Morphology of cES cells (puromycin 0.4 μg/ml, day 4 under selection): gone
- Morphology of cES cells (puromycin 0.4 μg/ml, day 5 under selection): gone
- Morphology of cES cells (puromycin 0.4 μg/ml, day 6 under selection): gone
- Morphology of cES cells (puromycin 0.4 μg/ml, day 7 under selection): gone
- Morphology of cES cells (puromycin 0.4 μg/ml, day 8 under selection): gone
- Morphology of cES cells (puromycin 0.4 μg/ml, day 9 under selection): gone
- Morphology of cES cells (puromycin 0.4 μg/ml, day 10 under selection): gone
- Morphology of cES cells (puromycin 0.5 μg/ml, day 1 under selection): diff
- Morphology of cES cells (puromycin 0.5 μg/ml, day 2 under selection): gone
- Morphology of cES cells (puromycin 0.5 μg/ml, day 3 under selection): gone
- Morphology of cES cells (puromycin 0.5 μg/ml, day 4 under selection): gone
- Morphology of cES cells (puromycin 0.5 μg/ml, day 5 under selection): gone
- Morphology of cES cells (puromycin 0.5 μg/ml, day 6 under selection): gone
- Morphology of cES cells (puromycin 0.5 μg/ml, day 7 under selection): gone
- Morphology of cES cells (puromycin 0.5 μg/ml, day 8 under selection): gone
- Morphology of cES cells (puromycin 0.5 μg/ml, day 9 under selection): gone
- Morphology of cES cells (puromycin 0.5 μg/ml, day 10 under selection): gone
- Morphology of cES cells (puromycin 0.6 μg/ml, day 1 under selection): diff
- Morphology of cES cells (puromycin 0.6 μg/ml, day 2 under selection): gone
- Morphology of cES cells (puromycin 0.6 μg/ml, day 3 under selection): gone
- Morphology of cES cells (puromycin 0.6 μg/ml, day 4 under selection): gone
- Morphology of cES cells (puromycin 0.6 μg/ml, day 5 under selection): gone
- Morphology of cES cells (puromycin 0.6 μg/ml, day 6 under selection): gone
- Morphology of cES cells (puromycin 0.6 μg/ml, day 7 under selection): gone
- Morphology of cES cells (puromycin 0.6 μg/ml, day 8 under selection): gone
- Morphology of cES cells (puromycin 0.6 μg/ml, day 9 under selection): gone
- Morphology of cES cells (puromycin 0.6 μg/ml, day 10 under selection): gone
- Morphology of cES cells (puromycin 0.7 μg/ml, day 1 under selection): diff
- Morphology of cES cells (puromycin 0.7 μg/ml, day 2 under selection): gone
- Morphology of cES cells (puromycin 0.7 μg/ml, day 3 under selection): gone
- Morphology of cES cells (puromycin 0.7 μg/ml, day 4 under selection): gone
- Morphology of cES cells (puromycin 0.7 μg/ml, day 5 under selection): gone
- Morphology of cES cells (puromycin 0.7 μg/ml, day 6 under selection): gone
- Morphology of cES cells (puromycin 0.7 μg/ml, day 7 under selection): gone
- Morphology of cES cells (puromycin 0.7 μg/ml, day 8 under selection): gone
- Morphology of cES cells (puromycin 0.7 μg/ml, day 9 under selection): gone
- Morphology of cES cells (puromycin 0.7 μg/ml, day 10 under selection): gone
- Morphology of cES cells (puromycin 0.8 μg/ml, day 1 under selection): gone
- Morphology of cES cells (puromycin 0.8 μg/ml, day 2 under selection): gone
- Morphology of cES cells (puromycin 0.8 μg/ml, day 3 under selection): gone
- Morphology of cES cells (puromycin 0.8 μg/ml, day 4 under selection): gone
- Morphology of cES cells (puromycin 0.8 μg/ml, day 5 under selection): gone
- Morphology of cES cells (puromycin 0.8 μg/ml, day 6 under selection): gone
- Morphology of cES cells (puromycin 0.8 μg/ml, day 7 under selection): gone
- Morphology of cES cells (puromycin 0.8 μg/ml, day 8 under selection): gone
- Morphology of cES cells (puromycin 0.8 μg/ml, day 9 under selection): gone
- Morphology of cES cells (puromycin 0.8 μg/ml, day 10 under selection): gone
